Source: EP4768499A1, “MACROCYCLIC PEPTIDE COMPOUND HAVING CELL MEMBRANE PERMEABILITY AND METABOLIC STABILITY, AND LIBRARY CONTAINING SAME” (Chugai Seiyaku Kabushiki Kaisha, priority 2023, dated 2025)
Starred links: 1 amine or outer side, 2 acyl side, 3 side chain; linkers in the order of their positions; H or OH if unused. Positions of bridges follow the written chain, without caps; N, C: chain ends. Non-standard residues stand in square brackets, D forms with d. Residues, ends and D or L forms follow the SMILES beside them. *: point of attachment. NMeF = CN[C@@H](Cc1ccccc1)C(=O)O; NMeGABA = CN(CCCC(=O)[*:2])[*:1]; NMeI = CC[C@H](C)[C@H](NC)C(=O)O; NMeT = CN[C@H](C(=O)O)[C@@H](C)O; hPhe = N[C@@H](CCc1ccccc1)C(=O)O; NMeL = CN[C@@H](CC(C)C)C(=O)O; NMeV = CN[C@H](C(=O)O)C(C)C; d(β3hA) = C[C@@H](N)CC(=O)O; NMeAbu = CC[C@H](NC)C(=O)O; NMeA = CN[C@@H](C)C(=O)O; Piperidide = C1CCN(*)CC1; dNMeA = CN[C@H](C)C(=O)O; Abu = CC[C@H](N)C(=O)O; Sar = CNCC(=O)O; tBu = CC(C)(C)*

Key:
Caco-2 cells = assay: Membrane permeability test using Caco-2 cells with preincubation; format: in vitro ADME; conditions: Caco-2 cells, preincubation 20 to 24 hours; apical FaSSIF/HBSS 1% DMSO pH 6.0, basal HBSS 4% BSA pH 7.4; basal sample at 180 minutes
[1] = as above; format: in vitro ADME; conditions: Caco-2; preincubation 20 to 24 hours; Apical FaSSIF/HBSS pH 6.0, Basal HBSS 4% BSA pH 7.4; 180 minutes; read-out: Caco2 Papp
[2] = Metabolic stability test: liver microsomal stability assay; format: in vitro ADME, mouse; conditions: mouse liver microsomes 0.5 mg protein/mL, compound 1 µM; for microsomal CLint at 1 µM: male, pH 7.4, presence of NADPH, read-out: Mouse Hepatic Microsome CLh,int NADPH(+); for Mouse Hepatic Microsome CLh,int NADPH(-): absence of NADPH

Compound	Caco2 Papp (10^-6 cm/sec) (Caco-2 cells)	Papp A→B [1]	microsomal CLint at 1 µM [2]	Mouse Hepatic Microsome CLh,int NADPH(-) [2]
CC[C@H](C)[C@H]1C(=O)N[C@@H](Cc2ccccc2)C(=O)N2CCC[C@H]2C(=O)N(C)[C@@H](CC(C)C)C(=O)N[C@@H](COC(C)(C)C)C(=O)N(C)[C@@H](Cc2ccccc2)C(=O)N[C@@H]([C@@H](C)O)C(=O)N(C)[C@@H](CC)C(=O)N2CCC[C@H]2C(=O)N(C)[C@@H](CC(C)C)C(=O)N[C@@H](C(C)C)C(=O)N[C@H](C(=O)N2CCCCC2)CC(=O)N(C)CCCC(=O)N(C)[C@@H](CC(C)C)C(=O)N1C [pd042] ([NMeGABA][NMeL][NMeI]FP[NMeL]S(tBu)[NMeF]T[NMeAbu]P[NMeL]VD-Piperidide; lactam N-14)	0.59 10^-6 cm/sec	0.59 ×10⁻⁶ cm/s	32.3 µL/min/mg	18.1 µL/min/mg Protein
CC[C@H](C)[C@H]1C(=O)N[C@@H]([C@@H](C)O)C(=O)N(C)CC(=O)N(C)[C@@H](CC(C)C)C(=O)N(C)[C@@H](Cc2ccccc2)C(=O)N[C@H](C(=O)N2CCCCC2)CC(=O)N(C)[C@@H](C)C(=O)N[C@@H](CC(C)C)C(=O)N(C)[C@@H](Cc2ccccc2)C(=O)N(C)[C@@H](C)C(=O)N(C)[C@@H](CC(C)C)C(=O)N[C@@H](COC(C)(C)C)C(=O)N(C)[C@@H](C)C(=O)N[C@@H](CC(C)C)C(=O)N1C [pd044] ([NMeA]L[NMeF][NMeA][NMeL]S(tBu)[NMeA]L[NMeI]T[Sar][NMeL][NMeF]D-Piperidide; lactam N-14)	0.83 10^-6 cm/sec	0.83 ×10⁻⁶ cm/s	54.3 µL/min/mg	33.1 µL/min/mg Protein
CC[C@H]1C(=O)N(C)[C@@H](C)C(=O)N[C@@H](CC(C)C)C(=O)N(C)[C@@H](C(C)C)C(=O)N[C@H](C)CC(=O)N[C@H](C(C)C)C(=O)N(C)[C@@H](CC(C)C)C(=O)N[C@@H](CC(C)C)C(=O)N(C)[C@@H](C(C)C)C(=O)N(C)[C@@H](CC(C)C)C(=O)N(C)CC(=O)N[C@@H]([C@@H](C)O)C(=O)N(C)[C@@H](Cc2ccccc2)C(=O)N[C@@H](COC(C)(C)C)C(=O)N1C [pd049] (cyclo(L[NMeV][NMeL][Sar]T[NMeF]S(tBu)[NMeAbu][NMeA]L[NMeV][d(β3hA)][dV][NMeL]))	0.32 10^-6 cm/sec	0.32 ×10⁻⁶ cm/s	30.6 µL/min/mg	29.1 µL/min/mg Protein
CC[C@H](C)[C@@H]1NC(=O)[C@H](C)N(C)C(=O)[C@H]([C@@H](C)O)N(C)C(=O)[C@H](CC(C)C)N(C)C(=O)[C@H]([C@@H](C)CC)NC(=O)[C@H](Cc2ccccc2)N(C)C(=O)[C@H](Cc2ccccc2)N(C)C(=O)[C@H](C)NC(=O)[C@H](COC(C)(C)C)NC(=O)[C@H](CC)N(C)C(=O)[C@H](C(C)C)NC(=O)CCCN(C)C(=O)C[C@@H](C)NC(=O)[C@H](C(C)C)N(C)C1=O [pd050] (cyclo(A[NMeF][NMeF]I[NMeL][NMeT][NMeA]I[NMeV][d(β3hA)][NMeGABA]V[NMeAbu]S(tBu)))	0.54 10^-6 cm/sec	0.54 ×10⁻⁶ cm/s	13.2 µL/min/mg	15.9 µL/min/mg Protein
CC[C@H](C)[C@H]1C(=O)N[C@@H]([C@@H](C)O)C(=O)N(C)CC(=O)N(C)[C@@H](CC(C)C)C(=O)N[C@@H](CC(C)C)C(=O)N[C@H](C)CC(=O)N(C)[C@@H](C)C(=O)N[C@@H](CC(C)C)C(=O)N(C)[C@@H](C)C(=O)N(C)[C@@H](CC(C)C)C(=O)N[C@@H](COC(C)(C)C)C(=O)N(C)[C@@H](Cc2ccccc2)C(=O)N[C@@H](C(C)C)C(=O)N(C)[C@@H](CC(C)C)C(=O)N1C [pd052] (cyclo(L[NMeA][NMeL]S(tBu)[NMeF]V[NMeL][NMeI]T[Sar][NMeL]L[d(β3hA)][NMeA]))	1.01 10^-6 cm/sec	1.01 ×10⁻⁶ cm/s	28 µL/min/mg	32.0 µL/min/mg Protein
CC[C@@H]1NC(=O)[C@H](CC(C)C)N(C)C(=O)[C@H]([C@@H](C)CC)NC(=O)[C@H](CC(C)C)N(C)C(=O)C[C@@H](C)NC(=O)[C@H](C(C)C)N(C)C(=O)[C@H](CC(C)C)NC(=O)[C@H](CC)N(C)C(=O)[C@H](Cc2ccccc2)N(C)C(=O)[C@@H]2CCCN2C(=O)[C@H](CC(C)C)NC(=O)[C@H]([C@@H](C)O)N(C)C(=O)[C@H](C)NC(=O)[C@H](CC(C)C)N(C)C1=O [pd053] (cyclo(A[NMeT]LP[NMeF][NMeAbu]L[NMeV][d(β3hA)][NMeL]I[NMeL][Abu][NMeL]))	1.64 10^-6 cm/sec	1.64 ×10⁻⁶ cm/s	45.7 µL/min/mg	24.1 µL/min/mg Protein

Next, values leading:

Caco2 Papp (10^-6 cm/sec) (Caco-2 cells)	Papp A→B [1]	microsomal CLint at 1 µM [2]	Mouse Hepatic Microsome CLh,int NADPH(-) [2]	Compound
0.13 10^-6 cm/sec	0.13 ×10⁻⁶ cm/s	25.1 µL/min/mg	23.5 µL/min/mg Protein	CC[C@H](C)[C@@H]1NC(=O)[C@H](C)N(C)C(=O)[C@H]([C@@H](C)O)NC(=O)[C@H](CC(C)C)N(C)C(=O)[C@H](CC)N(C)C(=O)[C@H](Cc2ccccc2)N(C)C(=O)[C@H](C)NC(=O)[C@H](Cc2ccccc2)N(C)C(=O)[C@H](C)N(C)C(=O)[C@H](CC(C)C)N(C)C(=O)[C@H](CC(C)C)NC(=O)CCCN(C)C(=O)C[C@@H](C(=O)N2CCCCC2)NC(=O)[C@H](CC(C)C)N(C)C1=O [pd041] ([NMeGABA]L[NMeL][NMeA][NMeF]A[NMeF][NMeAbu][NMeL]T[NMeA]I[NMeL]D-Piperidide; lactam N-14)
0.16 10^-6 cm/sec	0.16 ×10⁻⁶ cm/s	40.7 µL/min/mg	34.8 µL/min/mg Protein	CC[C@H](C)[C@@H]1NC(=O)[C@@H]2CCCN2C(=O)[C@H](CC(C)C)N(C)C(=O)[C@H](CC(C)C)NC(=O)[C@H]([C@@H](C)CC)N(C)C(=O)[C@H]([C@@H](C)O)NC(=O)[C@H](Cc2ccccc2)N(C)C(=O)[C@H](CC)N(C)C(=O)[C@H](Cc2ccccc2)N(C)C(=O)[C@H](C(C)C)NC(=O)[C@H](CC(C)C)N(C)C(=O)[C@H](C)N(C)C(=O)C[C@@H](C(=O)N2CCCCC2)NC(=O)[C@H](C(C)C)N(C)C1=O [pd043] ([NMeA][NMeL]V[NMeF][NMeAbu][NMeF]T[NMeI]L[NMeL]PI[NMeV]D-Piperidide; lactam N-14)
0.32 10^-6 cm/sec	0.32 ×10⁻⁶ cm/s	43.9 µL/min/mg	26.4 µL/min/mg Protein	CC[C@H](C)[C@@H]1NC(=O)[C@H](C)N(C)C(=O)C[C@@H](C(=O)N2CCCCC2)NC(=O)[C@H](CC)N(C)C(=O)[C@H](COC(C)(C)C)NC(=O)[C@H](CC(C)C)N(C)C(=O)[C@H](C)N(C)C(=O)[C@H](CC(C)C)N(C)C(=O)[C@H](Cc2ccccc2)N(C)C(=O)CN(C)C(=O)[C@H]([C@@H](C)O)NC(=O)[C@H](CC(C)C)N(C)C(=O)[C@H](C(C)C)NC(=O)[C@H](Cc2ccccc2)N(C)C1=O [pd045] ([NMeA]I[NMeF]V[NMeL]T[Sar][NMeF][NMeL][NMeA][NMeL]S(tBu)[NMeAbu]D-Piperidide; lactam N-14)
0.06 10^-6 cm/sec	0.06 ×10⁻⁶ cm/s	6.2 µL/min/mg	5.4 µL/min/mg Protein	CC[C@@H]1NC(=O)[C@H](C)N(C)C(=O)[C@H](CC(C)C)N(C)C(=O)[C@H]([C@@H](C)O)N(C)C(=O)[C@H](CC(C)C)N(C)C(=O)[C@H](C)NC(=O)[C@H](Cc2ccccc2)N(C)C(=O)CN(C)C(=O)C[C@@H](C(=O)N2CCCCC2)NC(=O)[C@H](C(C)C)N(C)C(=O)[C@H](C)NC(=O)[C@@H]2CCCN2C(=O)[C@H](C(C)C)NC(=O)[C@H](Cc2ccccc2)N(C)C1=O [pd046] ([Sar][NMeF]A[NMeL][NMeT][NMeL][NMeA][Abu][NMeF]VPA[NMeV]D-Piperidide; lactam N-14)
0.16 10^-6 cm/sec	0.16 ×10⁻⁶ cm/s	41.4 µL/min/mg	30.0 µL/min/mg Protein	CC(C)C[C@H]1C(=O)N2CCC[C@H]2C(=O)N(C)[C@@H](Cc2ccccc2)C(=O)N[C@@H](C(C)C)C(=O)N(C)[C@@H](C)C(=O)N(C)[C@@H](C(C)C)C(=O)N[C@H](C(=O)N2CCCCC2)CC(=O)N[C@H](C(C)C)C(=O)N(C)[C@@H]([C@@H](C)O)C(=O)N(C)[C@@H](CC(C)C)C(=O)N(C)[C@@H](C(C)C)C(=O)N(C)[C@@H](CC(C)C)C(=O)N[C@@H](CCc2ccccc2)C(=O)N(C)CC(=O)N1C [pd047] ([dV][NMeT][NMeL][NMeV][NMeL][hPhe][Sar][NMeL]P[NMeF]V[NMeA][NMeV]D-Piperidide; lactam N-14)
0.28 10^-6 cm/sec	0.28 ×10⁻⁶ cm/s	30.2 µL/min/mg	20.7 µL/min/mg Protein	CC[C@H](C)[C@H]1C(=O)N(C)[C@@H](CC(C)C)C(=O)N[C@H](C(=O)N2CCCCC2)CC(=O)N(C)CCCC(=O)N[C@@H](CC(C)C)C(=O)N(C)[C@@H](CC(C)C)C(=O)N(C)[C@@H](C)C(=O)N(C)[C@@H](Cc2ccccc2)C(=O)N[C@@H](C)C(=O)N(C)[C@@H](Cc2ccccc2)C(=O)N(C)[C@@H](CC)C(=O)N(C)[C@@H](CC(C)C)C(=O)N[C@@H]([C@@H](C)O)C(=O)N(C)[C@@H](C)C(=O)N1C [pd048] ([NMeGABA]L[NMeL][NMeA][NMeF]A[NMeF][NMeAbu][NMeL]T[NMeA][NMeI][NMeL]D-Piperidide; lactam N-14)
0.49 10^-6 cm/sec	0.49 ×10⁻⁶ cm/s	32.5 µL/min/mg	25.1 µL/min/mg Protein	CC[C@H](C)[C@@H]1NC(=O)[C@@H]2CCCN2C(=O)[C@H](C(C)C)N(C)C(=O)[C@H](CC(C)C)NC(=O)[C@@H](C)N(C)C(=O)C[C@@H](C)NC(=O)[C@H](C(C)C)N(C)C(=O)[C@H](Cc2ccccc2)N(C)C(=O)[C@H](COC(C)(C)C)NC(=O)[C@H](CC(C)C)N(C)C(=O)[C@H](C)N(C)C(=O)[C@H](CC(C)C)N(C)C(=O)[C@H]([C@@H](C)O)NC(=O)[C@H](Cc2ccccc2)N(C)C1=O [pd054] (cyclo(I[NMeF]T[NMeL][NMeA][NMeL]S(tBu)[NMeF][NMeV][d(β3hA)][dNMeA]L[NMeV]P))
